Measurements taken from patent US11226337B2, “Chemoproteomic profiling of protein electrophilic and oxidative post-translational modifications” (Zenagem, LLC, priority 2017, dated 2022).

What was measured:
Assay in all cases: SILAC RP-ABPP
Assay type in all cases: cell-based
[1] = biological target: T1, FADS2 Fatty acid desaturase 2 (O95864) (Homo sapiens, UniProt O95864); settings: SILAC H/L, HEK293T
T1 construct: In Situ Labelling of Cells with Hydrazine Probes for MS Experiments; endogenous in cells; host or cells: HEK293T and/or MDA-MB-231
T1 sequence (O95864 whole entry): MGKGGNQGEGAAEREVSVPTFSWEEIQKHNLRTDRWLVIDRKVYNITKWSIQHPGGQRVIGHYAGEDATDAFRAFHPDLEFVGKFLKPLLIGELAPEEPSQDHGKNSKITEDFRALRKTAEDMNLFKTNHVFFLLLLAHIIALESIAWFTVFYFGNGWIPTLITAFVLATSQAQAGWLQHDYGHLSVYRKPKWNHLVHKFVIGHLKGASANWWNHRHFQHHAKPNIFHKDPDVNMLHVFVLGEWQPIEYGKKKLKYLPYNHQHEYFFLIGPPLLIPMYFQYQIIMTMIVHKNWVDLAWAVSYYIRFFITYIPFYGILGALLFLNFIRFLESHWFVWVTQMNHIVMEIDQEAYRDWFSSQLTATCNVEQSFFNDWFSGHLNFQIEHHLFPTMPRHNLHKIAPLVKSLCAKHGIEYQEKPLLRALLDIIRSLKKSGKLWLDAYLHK
Procedure, shortened: (§1)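 Heavy SILAC HEK293T or MDA-MB-231 cells were treated with a clickable hydrazine probe; light cells received the non-clickable analogue (enrichment) or the probe plus 10-fold excess non-clickable competitor (competition). Mixed proteomes underwent CuAAC with 100 μM biotin-azide for 1 h. Heavy:light ratios were taken as median peptide ratios (≥3 peptides) averaged over ≥3 replicates.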

[2] = biological target: T2, ACOX3 Peroxisomal acylcoenzyme A oxidase 3 (O15254) (Homo sapiens, UniProt O15254); settings: SILAC H/L, MDA-MB-231
T2 construct: endogenous in cells; host or cells: HEK293T or MDA-MB-231
T2 sequence (O15254 whole entry): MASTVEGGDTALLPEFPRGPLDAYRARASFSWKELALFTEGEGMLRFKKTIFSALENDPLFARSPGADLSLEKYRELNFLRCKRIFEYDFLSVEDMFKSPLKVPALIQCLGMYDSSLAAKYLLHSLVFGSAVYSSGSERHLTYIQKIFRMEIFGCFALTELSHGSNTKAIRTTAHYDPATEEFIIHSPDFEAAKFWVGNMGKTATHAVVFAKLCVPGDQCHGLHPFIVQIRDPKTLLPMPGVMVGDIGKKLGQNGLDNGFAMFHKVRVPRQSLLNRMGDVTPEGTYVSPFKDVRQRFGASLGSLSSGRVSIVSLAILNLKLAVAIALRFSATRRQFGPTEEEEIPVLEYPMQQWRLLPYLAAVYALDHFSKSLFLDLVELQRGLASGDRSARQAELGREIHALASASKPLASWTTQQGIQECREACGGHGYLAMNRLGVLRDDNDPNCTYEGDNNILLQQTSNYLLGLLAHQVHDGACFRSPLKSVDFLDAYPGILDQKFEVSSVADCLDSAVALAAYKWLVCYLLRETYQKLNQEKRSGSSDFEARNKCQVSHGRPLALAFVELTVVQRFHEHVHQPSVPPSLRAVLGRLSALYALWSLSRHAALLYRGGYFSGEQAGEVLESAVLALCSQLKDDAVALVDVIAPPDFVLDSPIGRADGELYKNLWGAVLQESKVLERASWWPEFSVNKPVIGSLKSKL
Procedure, shortened: as §1

[3] = biological target: T3, ERAP1 Endoplasmic reticulum aminopeptidase (Q9NZ08) (Homo sapiens, UniProt Q9NZ08); settings: SILAC H/L, MDA-MB-231
T3 construct: endogenous in cells; host or cells: HEK293T or MDA-MB-231
T3 sequence (Q9NZ08 whole entry): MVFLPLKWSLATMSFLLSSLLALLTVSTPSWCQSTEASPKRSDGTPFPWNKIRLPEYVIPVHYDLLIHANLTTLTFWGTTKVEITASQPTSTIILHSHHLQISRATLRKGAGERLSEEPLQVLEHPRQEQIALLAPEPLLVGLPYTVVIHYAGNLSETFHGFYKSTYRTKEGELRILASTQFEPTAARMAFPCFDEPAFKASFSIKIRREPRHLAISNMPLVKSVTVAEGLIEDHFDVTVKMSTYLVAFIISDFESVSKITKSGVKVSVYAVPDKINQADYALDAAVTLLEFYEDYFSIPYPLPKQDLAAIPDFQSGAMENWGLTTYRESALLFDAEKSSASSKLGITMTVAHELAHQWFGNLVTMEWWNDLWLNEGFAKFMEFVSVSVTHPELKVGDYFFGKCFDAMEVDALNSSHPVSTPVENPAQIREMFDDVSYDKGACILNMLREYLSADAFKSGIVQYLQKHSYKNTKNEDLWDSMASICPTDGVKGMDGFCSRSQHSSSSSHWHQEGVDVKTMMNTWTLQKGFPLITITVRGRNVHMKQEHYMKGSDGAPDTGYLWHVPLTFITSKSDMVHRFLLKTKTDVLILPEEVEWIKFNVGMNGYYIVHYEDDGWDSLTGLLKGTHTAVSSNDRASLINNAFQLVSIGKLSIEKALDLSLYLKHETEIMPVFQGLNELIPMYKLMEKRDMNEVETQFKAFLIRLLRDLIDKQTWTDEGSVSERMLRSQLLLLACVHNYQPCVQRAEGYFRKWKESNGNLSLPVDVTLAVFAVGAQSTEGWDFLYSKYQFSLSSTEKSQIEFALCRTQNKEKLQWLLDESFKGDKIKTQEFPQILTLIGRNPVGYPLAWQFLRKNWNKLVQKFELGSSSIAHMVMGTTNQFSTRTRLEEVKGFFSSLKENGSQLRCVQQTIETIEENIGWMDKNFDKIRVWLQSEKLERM
Procedure, shortened: as §1

[4] = biological target: T4, PHF8 Histone lysine demethylase PHF8 (Q9UPP1) (Homo sapiens, UniProt Q9UPP1); settings: SILAC H/L, HEK293T
T4 construct: In Situ Labelling of Cells with Hydrazine Probes for MS Experiments; endogenous in cells
T4 sequence (Q9UPP1 whole entry): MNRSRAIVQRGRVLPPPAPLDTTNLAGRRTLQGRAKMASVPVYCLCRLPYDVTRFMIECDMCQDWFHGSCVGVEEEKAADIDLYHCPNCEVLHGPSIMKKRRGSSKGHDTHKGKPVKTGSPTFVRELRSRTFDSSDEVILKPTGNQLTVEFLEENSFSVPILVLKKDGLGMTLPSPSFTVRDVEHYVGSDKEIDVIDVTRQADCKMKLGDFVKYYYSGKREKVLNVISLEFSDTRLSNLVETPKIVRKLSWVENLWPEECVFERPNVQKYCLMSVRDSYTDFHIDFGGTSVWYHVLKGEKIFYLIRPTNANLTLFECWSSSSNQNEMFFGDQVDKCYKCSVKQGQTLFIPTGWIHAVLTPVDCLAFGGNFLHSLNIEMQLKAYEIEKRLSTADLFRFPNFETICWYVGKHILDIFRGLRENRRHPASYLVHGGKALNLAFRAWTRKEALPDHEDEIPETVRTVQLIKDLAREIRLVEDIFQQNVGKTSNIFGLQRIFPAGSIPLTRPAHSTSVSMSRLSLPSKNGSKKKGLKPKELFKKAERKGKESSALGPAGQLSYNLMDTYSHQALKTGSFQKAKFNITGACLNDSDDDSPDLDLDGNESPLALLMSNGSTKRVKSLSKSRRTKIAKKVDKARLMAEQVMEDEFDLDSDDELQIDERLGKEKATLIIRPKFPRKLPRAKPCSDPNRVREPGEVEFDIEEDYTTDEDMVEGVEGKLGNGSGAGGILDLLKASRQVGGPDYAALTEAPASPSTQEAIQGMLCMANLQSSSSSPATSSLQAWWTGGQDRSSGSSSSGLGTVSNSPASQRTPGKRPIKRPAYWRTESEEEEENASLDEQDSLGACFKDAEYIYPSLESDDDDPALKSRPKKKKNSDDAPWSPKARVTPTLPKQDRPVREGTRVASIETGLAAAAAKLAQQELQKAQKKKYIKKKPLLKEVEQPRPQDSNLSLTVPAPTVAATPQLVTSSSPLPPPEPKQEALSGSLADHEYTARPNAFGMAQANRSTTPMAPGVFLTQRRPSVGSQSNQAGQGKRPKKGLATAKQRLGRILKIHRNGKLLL
Procedure, shortened: as §1

[5] = biological target: T5, FADS1 Fatty acid desaturase 1 (O60427) (Homo sapiens, UniProt O60427); settings: SILAC H/L, HEK293T
T5 construct: In Situ Labelling of Cells with Hydrazine Probes for MS Experiments; endogenous in cells; host or cells: HEK293T and/or MDA-MB-231
Procedure, shortened: as §1

[6] = biological target: T6, BCAT1 Branchedchainaminoacid (P54687) (Homo sapiens, UniProt P54687); settings: SILAC H/L, MDA-MB-231
T6 construct: endogenous in cells; host or cells: HEK293T or MDA-MB-231
T6 sequence (P54687 whole entry): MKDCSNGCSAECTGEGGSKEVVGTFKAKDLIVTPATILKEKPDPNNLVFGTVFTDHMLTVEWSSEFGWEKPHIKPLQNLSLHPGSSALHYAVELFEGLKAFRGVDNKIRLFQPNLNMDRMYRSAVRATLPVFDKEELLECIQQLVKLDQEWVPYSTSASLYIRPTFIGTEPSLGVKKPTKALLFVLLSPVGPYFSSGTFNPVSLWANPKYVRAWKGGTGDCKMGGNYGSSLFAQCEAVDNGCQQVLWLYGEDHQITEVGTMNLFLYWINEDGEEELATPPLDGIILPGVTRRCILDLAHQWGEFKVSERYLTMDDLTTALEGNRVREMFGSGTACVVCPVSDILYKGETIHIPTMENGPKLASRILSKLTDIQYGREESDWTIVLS
Procedure, shortened: as §1

[7] = biological target: T7, NAGA AlphaNacetylgalactosaminidase (P17050) (Homo sapiens, UniProt P17050); settings: SILAC H/L, MDA-MB-231
T7 construct: endogenous in cells; host or cells: HEK293T or MDA-MB-231
T7 sequence (P17050 18-411): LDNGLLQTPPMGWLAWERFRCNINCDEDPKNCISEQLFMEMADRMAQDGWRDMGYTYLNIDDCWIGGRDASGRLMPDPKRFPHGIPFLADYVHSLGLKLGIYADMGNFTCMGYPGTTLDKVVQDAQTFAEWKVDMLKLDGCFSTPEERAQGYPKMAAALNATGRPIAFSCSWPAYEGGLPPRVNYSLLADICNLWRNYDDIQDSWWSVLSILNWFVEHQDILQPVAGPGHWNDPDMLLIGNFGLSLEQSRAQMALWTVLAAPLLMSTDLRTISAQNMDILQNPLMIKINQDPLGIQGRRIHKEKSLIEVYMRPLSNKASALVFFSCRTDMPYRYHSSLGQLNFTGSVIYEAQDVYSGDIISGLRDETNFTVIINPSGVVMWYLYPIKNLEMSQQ
Procedure, shortened: as §1

[8] = biological target: T8, PTGR2 Prostaglandin reductase 2 (Q8N8N7) (Homo sapiens, UniProt Q8N8N7); settings: SILAC H/L, MDA-MB-231
T8 construct: endogenous in cells; host or cells: HEK293T or MDA-MB-231
T8 sequence (Q8N8N7 whole entry): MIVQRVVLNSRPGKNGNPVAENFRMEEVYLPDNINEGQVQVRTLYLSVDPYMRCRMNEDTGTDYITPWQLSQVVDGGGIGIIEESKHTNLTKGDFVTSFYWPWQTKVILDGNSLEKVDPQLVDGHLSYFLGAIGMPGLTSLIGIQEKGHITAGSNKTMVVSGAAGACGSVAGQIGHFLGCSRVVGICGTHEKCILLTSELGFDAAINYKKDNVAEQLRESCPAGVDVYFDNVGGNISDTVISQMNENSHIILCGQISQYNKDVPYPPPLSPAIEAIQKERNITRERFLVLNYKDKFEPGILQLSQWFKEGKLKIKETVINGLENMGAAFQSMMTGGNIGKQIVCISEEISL
Procedure, shortened: as §1

[9] = biological target: T9, P4HA2 Prolyl 4hydroxylase subunit alpha2 (O15460) (Homo sapiens, UniProt O15460); settings: SILAC H/L, MDA-MB-231
T9 construct: endogenous in cells; host or cells: HEK293T or MDA-MB-231
Procedure, shortened: as §1

[10] = biological target: T10, XPNPEP3 Probable XaaPro aminopeptidase 3 (Q9NQH7) (Homo sapiens, UniProt Q9NQH7); settings: SILAC H/L, HEK293T
T10 construct: In Situ Labelling of Cells with Hydrazine Probes for MS Experiments; endogenous in cells; host or cells: HEK293T and/or MDA-MB-231
Procedure, shortened: as §1

[11] = biological target: T11, ASAH1 Acid ceramidase (Q13510) (Homo sapiens, UniProt Q13510); settings: SILAC H/L, MDA-MB-231
T11 construct: endogenous in cells; host or cells: HEK293T or MDA-MB-231
T11 sequence (Q13510 22-395): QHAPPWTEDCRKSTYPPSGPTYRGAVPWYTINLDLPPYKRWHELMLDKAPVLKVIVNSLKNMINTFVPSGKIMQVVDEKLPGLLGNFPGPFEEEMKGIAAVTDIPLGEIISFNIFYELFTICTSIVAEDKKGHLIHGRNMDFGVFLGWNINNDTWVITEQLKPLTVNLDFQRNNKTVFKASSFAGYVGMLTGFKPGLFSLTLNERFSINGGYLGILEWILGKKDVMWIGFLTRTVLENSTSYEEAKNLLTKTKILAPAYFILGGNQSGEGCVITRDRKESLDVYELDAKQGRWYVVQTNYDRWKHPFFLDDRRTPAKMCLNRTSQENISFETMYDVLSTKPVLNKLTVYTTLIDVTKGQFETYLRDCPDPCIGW
Procedure, shortened: as §1

[12] = biological target: T12, KDM5C Lysinespecific demethylase 5C (P41229) (Homo sapiens, UniProt P41229); settings: SILAC H/L, HEK293T
T12 construct: In Situ Labelling of Cells with Hydrazine Probes for MS Experiments; endogenous in cells; host or cells: HEK293T and/or MDA-MB-231
Procedure, shortened: as §1

[13] = biological target: T13, KDM1A Lysinespecific histone demethylase 1A (O60341) (Homo sapiens, UniProt O60341); settings: SILAC H/L, HEK293T
T13 construct: In Situ Labelling of Cells with Hydrazine Probes for MS Experiments; endogenous in cells; host or cells: HEK293T and/or MDA-MB-231
Procedure, shortened: as §1

[14] = biological target: T14, RRM2B Ribonucleosidediphosphate reductase (Q7LG56) (Homo sapiens, UniProt Q7LG56); settings: SILAC H/L, MDA-MB-231
T14 construct: endogenous in cells; host or cells: HEK293T or MDA-MB-231
T14 sequence (Q7LG56 whole entry): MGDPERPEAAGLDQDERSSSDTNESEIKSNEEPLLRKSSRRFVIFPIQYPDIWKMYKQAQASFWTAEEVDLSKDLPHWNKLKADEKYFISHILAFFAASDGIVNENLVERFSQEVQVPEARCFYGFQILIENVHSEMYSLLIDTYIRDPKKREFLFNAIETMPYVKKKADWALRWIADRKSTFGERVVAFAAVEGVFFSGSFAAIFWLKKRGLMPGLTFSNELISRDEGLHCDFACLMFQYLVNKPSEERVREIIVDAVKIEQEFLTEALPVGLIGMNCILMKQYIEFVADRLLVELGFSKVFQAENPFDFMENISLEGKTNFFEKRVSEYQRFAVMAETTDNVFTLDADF
Procedure, shortened: as §1

SMILES: C#CCCNC(=O)c1ccc(NN)cc1.Cl [probe 2, N-(but-3-yn-1-yl)-4-hydrazinylbenzamide hydrochloride]
- enrichment ratioavg ([1]; probe 2 1 mM 0.5 h vs probe 4): 20
- competition ratioavg ([1]; probe 2 vs probe 2+10x probe 4): 4
- enrichment ratioavg ([2]; probe 2 1 mM 0.5 h vs probe 4): 20
- competition ratioavg ([2]; probe 2 vs probe 2+10x probe 4): 1
- enrichment ratioavg ([3]; probe 2 1 mM 0.5 h vs probe 4): 8
- competition ratioavg ([3]; probe 2 vs probe 2+10x probe 4): 4
- enrichment ratioavg ([4]; probe 2 1 mM 0.5 h vs probe 4): 20
- competition ratioavg ([4]; probe 2 vs probe 2+10x probe 4): 15
- enrichment ratioavg ([5]; probe 2 1 mM 0.5 h vs probe 4): 20
- competition ratioavg ([5]; probe 2 vs probe 2+10x probe 4): 4
- enrichment ratioavg ([6]; probe 2 1 mM 0.5 h vs probe 4): 20
- competition ratioavg ([6]; probe 2 vs probe 2+10x probe 4): 2
- enrichment ratioavg ([7]; probe 2 1 mM 0.5 h vs probe 4): 17
- competition ratioavg ([7]; probe 2 vs probe 2+10x probe 4): 3
- enrichment ratioavg ([8]; probe 2 1 mM 0.5 h vs probe 4): 15
- competition ratioavg ([8]; probe 2 vs probe 2+10x probe 4): 1
- enrichment ratioavg ([9]; probe 2 1 mM 0.5 h vs probe 4): 20
- competition ratioavg ([9]; probe 2 vs probe 2+10x probe 4): 3
- enrichment ratioavg ([10]; probe 2 1 mM 0.5 h vs probe 4): 20
- competition ratioavg ([10]; probe 2 vs probe 2+10x probe 4): 4
- enrichment ratioavg ([11]; probe 2 1 mM 0.5 h vs probe 4): 20
- competition ratioavg ([11]; probe 2 vs probe 2+10x probe 4): 4
- enrichment ratioavg ([12]; probe 2 1 mM 0.5 h vs probe 4): 19
- competition ratioavg ([12]; probe 2 vs probe 2+10x probe 4): 3
- enrichment ratioavg ([13]; probe 2 1 mM 0.5 h vs probe 4): 20
- competition ratioavg ([13]; probe 2 vs probe 2+10x probe 4): 2
- enrichment ratioavg ([14]; probe 2 1 mM 0.5 h vs probe 4): 7
- competition ratioavg ([14]; probe 2 vs probe 2+10x probe 4): 2
